Measurements as given in publication PMC6802219, “A kinase-independent role for CDK8 in BCR-ABL1^+ leukemia” (Nature Communications, 2019).
Read-outs that look alike come from different tables or passages of the source.

What was measured:
#14 = test: cells; design: species or system primary ALL patient cells; 3H-thymidine incorporation proliferation assay in primary ALL patient cells; conditions: 48 h
Procedure: (§1) Synthesis details of YKL-06-101 and JH-XI-10-02 are provided in Supplementary Notes 1 and 2. Proliferation of degrader-exposed human leukemic cell lines and primary ALL patient cells were examined by measuring 3H-thymidine uptake after 48 h. For immunoblottings and FACS analysis, cells were incubated with the indicated concentrations of the degraders up to 96 h.  Fig. 7 Chemical CDK8 degradation cooperates with mTOR inhibition. a Co-expression matrix of CDK8 and members of mTOR/PI3K signaling pathways in samples of 203 pediatric ALL patients (TARGET cohort, RNA-seq) and b 179 AML patients (TCGA AML cohort, RNA-seq). […] DMSO was used as vehicle control (D: DMSO, n = 3). Immunoblots show mTOR, CDK8, and pS6 after incubation of f REH cells or g Z119 cells with 0.5 µM and 1 µM of JH-XI-10-02 or YKL-06-101 for 48, 72, and 96 h. DMSO (indicated as D) was used as vehicle control and β-actin served as loading control. h AnnexinV/7AAD staining of Z119 cells incubated with 0.5 µM and 1 µM of JH-XI-10-02 or YKL-06-101 for 72 and 96 h. DMSO was used as a vehicle control (D: DMSO, n = 3). i AnnexinV/7AAD staining of Z119 cells incubated with Torin1, JH-XI-10-02, or both in combination with indicated concentrations for 72 and 96 h. DMSO (indicated as D) was used as a vehicle control. One representative experiment out of three is depicted. j Bar diagram depicts relative thymidine incorporation of six primary B-ALL patient samples incubated for 48 h with 1 μM of YKL-06-101. Patient #1 represents a non-responder, patient #4 was BCR-ABL1^+ (Ph^+), whereas the others were BCR-ABL1^− (Ph^−). Levels of significance were calculated using Kruskal–Wallis test followed by Dunn’s test, data represents means ± SD (*p < 0.05, **p < 0.01). Source data are provided as a Source Data file

#1 = test: cells; design: species or system primary ALL patient cells; 3H-thymidine incorporation proliferation assay in primary ALL patient cells; conditions: 48 h
Procedure: as §1

#3 = test: cells; design: species or system primary ALL patient cells; 3H-thymidine incorporation proliferation assay in primary ALL patient cells; conditions: 48 h
Procedure: as §1

#8 = test: cells; design: species or system primary ALL patient cells; 3H-thymidine incorporation proliferation assay in primary ALL patient cells; conditions: 48 h
Procedure: as §1

#15 = test: cells; design: species or system primary ALL patient cells; 3H-thymidine incorporation proliferation assay in primary ALL patient cells; conditions: 48 h
Procedure: as §1

#12 = test: cells; design: species or system primary ALL patient cells; 3H-thymidine incorporation proliferation assay in primary ALL patient cells; conditions: 48 h
Procedure: as §1

#4 = test: cells; design: species or system primary ALL patient cells; 3H-thymidine incorporation proliferation assay in primary ALL patient cells; conditions: 48 h
Procedure: as §1

#6 = test: cells; design: species or system primary ALL patient cells; 3H-thymidine incorporation proliferation assay in primary ALL patient cells; conditions: 48 h
Procedure: as §1

#13 = test: cells; design: species or system primary ALL patient cells; 3H-thymidine incorporation proliferation assay in primary ALL patient cells; conditions: 48 h
Procedure: as §1

#9 = test: cells; design: species or system primary ALL patient cells; 3H-thymidine incorporation proliferation assay in primary ALL patient cells; conditions: 48 h
Procedure: as §1

#7 = test: cells; design: species or system primary ALL patient cells; 3H-thymidine incorporation proliferation assay in primary ALL patient cells; conditions: 48 h
Procedure: as §1

#11 = test: cells; design: species or system primary ALL patient cells; 3H-thymidine incorporation proliferation assay in primary ALL patient cells; conditions: 48 h
Procedure: as §1

CDK8 = CDK8 (Homo sapiens, UniProt P49336); test: CDK8 kinase inhibition IC50 (assay not detailed in main text); assay type: biochemical
Sequence of CDK8 (P49336 whole entry): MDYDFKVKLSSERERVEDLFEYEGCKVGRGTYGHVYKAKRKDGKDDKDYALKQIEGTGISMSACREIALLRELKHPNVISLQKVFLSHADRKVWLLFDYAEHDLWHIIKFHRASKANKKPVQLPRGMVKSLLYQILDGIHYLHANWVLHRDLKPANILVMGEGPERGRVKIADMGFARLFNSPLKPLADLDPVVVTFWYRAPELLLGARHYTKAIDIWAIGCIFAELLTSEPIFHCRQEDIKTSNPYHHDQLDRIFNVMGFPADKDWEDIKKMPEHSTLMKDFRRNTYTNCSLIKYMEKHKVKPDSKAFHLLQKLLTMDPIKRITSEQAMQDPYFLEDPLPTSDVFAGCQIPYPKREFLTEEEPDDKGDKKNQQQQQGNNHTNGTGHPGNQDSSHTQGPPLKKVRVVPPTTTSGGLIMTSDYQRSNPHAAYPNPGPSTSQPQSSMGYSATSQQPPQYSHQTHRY

`CN(C(=O)CCOCCOCCOCCOCCNc1cccc2c1C(=O)N(C1CCC(=O)NC1=O)C2=O)[C@H]1CC[C@@]2(C)[C@@H](CC[C@@H]3[C@@H]2CC[C@]2(C)[C@@H](c4ccc5ccncc5c4)CC[C@@H]32)C1` (stereo partly shown) [JH-XI-10-02] was tested, and the IC50 (#14; read-out: JH-XI-10-02 IC50) was over 10 µM, the IC50 (#1; read-out: JH-XI-10-02 IC50) was over 10 µM and the IC50 (#3; read-out: JH-XI-10-02 IC50) was over 10 µM. It also gave an IC50 (#8; read-out: JH-XI-10-02 IC50) of over 10 µM, an IC50 (#15; read-out: JH-XI-10-02 IC50) of over 10 µM and an IC50 (#12; read-out: JH-XI-10-02 IC50) of over 10 µM. The IC50 (#4; read-out: JH-XI-10-02 IC50) was over 10 µM, the IC50 (#6; read-out: JH-XI-10-02 IC50) was over 10 µM and the IC50 (#13; read-out: JH-XI-10-02 IC50) was over 10 µM. It also gave an IC50 (#9; read-out: JH-XI-10-02 IC50) of over 10 µM, an IC50 (#7; read-out: JH-XI-10-02 IC50) of over 10 µM and an IC50 (#11; read-out: JH-XI-10-02 IC50) of over 10 µM.

For `O=C1CCC(N2C(=O)c3cccc(NCCOCCOCCOCCOCCOCCC(=O)N4CCN(c5ccc(-n6c(=O)ccc7cnc8ccc(-c9ccc%10ccncc%10c9)cc8c76)cc5C(F)(F)F)CC4)c3C2=O)C(=O)N1` (stereo not shown) [YKL-06-101], the IC50 (#14; read-out: YKL-06-101 IC50) was over 10 µM, the IC50 (#1; read-out: YKL-06-101 IC50) was over 10 µM and the IC50 (#3; read-out: YKL-06-101 IC50) was 0.9 µM. For the same compound, the IC50 (#8; read-out: YKL-06-101 IC50) was over 10 µM, the IC50 (#15; read-out: YKL-06-101 IC50) was 10 µM and the IC50 (#12; read-out: YKL-06-101 IC50) was over 10 µM. It also gave an IC50 (#4; read-out: YKL-06-101 IC50) of over 10 µM, an IC50 (#6; read-out: YKL-06-101 IC50) of 0.1 µM and an IC50 (#13; read-out: YKL-06-101 IC50) of 0.3 µM. For the same compound, the IC50 (#9; read-out: YKL-06-101 IC50) was 9 µM, the IC50 (#7; read-out: YKL-06-101 IC50) was over 10 µM and the IC50 (#11; read-out: YKL-06-101 IC50) was 0.4 µM.

In the case of THZ4-55, the IC50 (CDK8) is reported as 0.005 µM.
